Reference: patent US5541175A, “Cephalosporin antibiotics” (Lucky, Ltd., priority 1993, dated 1996)
≈ marks a conversion by molar mass, not a printed value.

Key:
Escherichia coli 10536 = assay: Minimum inhibitory concentration (agar 2-fold dilution); format: cell-based; conditions: Escherichia coli; E. coli 10536; Muller-Hinton agar, 37° C., 20 hours; read-out: Minimum Inhibitory Concentration
Description: (§1) The minimum inhibitory concentration was determined by diluting the test compounds according to 2-fold dilution, suspending them in Muller-Hinton agar medium, inoculating 2 μl of the suspension containing the test strains having 10^7 CFU (Colony Forming Unit) per 1 ml into the medium and then culturing the test strains at 37° C. for 20 hours.

[1] = system: Acinetobacter calcoaceticus 15473A; assay: as above; format: cell-based; conditions: A. calcoaceticus 15473A, Muller-Hinton agar, 37° C., 20 hours, read-out: Minimum Inhibitory Concentration
Description: as §1

[2] = system: Serratia marcescens 1826E; assay: as above; format: cell-based; conditions: S. marcescens 1826E, Muller-Hinton agar, 37° C., 20 hours, read-out: Minimum Inhibitory Concentration
Description: as §1

[3] = system: Pseudomonas aeruginosa 1912E; assay: as above; format: cell-based; conditions: P. aeruginosa 1912E, Muller-Hinton agar, 37° C., 20 hours, read-out: Minimum Inhibitory Concentration
Description: as §1

[4] = system: Staphylococcus aureus epidermidis 887E; assay: as above; format: cell-based; conditions: S. aureus epidermidis 887E, Muller-Hinton agar, 37° C., 20 hours, read-out: Minimum Inhibitory Concentration
Description: as §1

[5] = system: Pseudomonas aeruginosa 6065; assay: as above; format: cell-based; conditions: Pseudomonas aeruginosa; P. aeruginosa 6065; Muller-Hinton agar, 37° C., 20 hours; read-out: Minimum Inhibitory Concentration
Description: as §1

Staphylococcus aureus 77 = assay: as above; format: cell-based; conditions: Staphylococcus aureus; S. aureus 77; Muller-Hinton agar, 37° C., 20 hours; read-out: Minimum Inhibitory Concentration
Description: as §1

[6] = system: Escherichia coli TEM7 3457E; assay: as above; format: cell-based; conditions: TEM73457E, 20 h, read-out: Minimum Inhibitory Concentration
Description: as §1

[7] = system: Salmonella typhimurium 14028A; assay: as above; format: cell-based; conditions: Salmonella enterica; S. typhimurium 14028A; Muller-Hinton agar, 37° C., 20 hours; read-out: Minimum Inhibitory Concentration
Description: as §1

[8] = system: Escherichia coli TEM3 3455E; assay: as above; format: cell-based; conditions: TEM33455E, 20 h, read-out: Minimum Inhibitory Concentration
Description: as §1

Proteus vulgaris 6059A = assay: as above; format: cell-based; conditions: P. vulgaris 6059A, Muller-Hinton agar, 37° C., 20 hours, read-out: Minimum Inhibitory Concentration
Description: as §1

[9] = system: Citrobacter diversus 2046E; assay: as above; format: cell-based; conditions: Citrobacter koseri; C. diversus 2046E; Muller-Hinton agar, 37° C., 20 hours; read-out: Minimum Inhibitory Concentration
Description: as §1

[10] = system: Staphylococcus aureus 6538P; assay: as above; format: cell-based; conditions: S. aureus 6538P, Muller-Hinton agar, 37° C., 20 hours, read-out: Minimum Inhibitory Concentration
Description: as §1

[11] = system: Klebsiella aerogenes SHV-1 1976E; assay: as above; format: cell-based; conditions: SHV11976E, K. aerogenes SHV-1 1976E, Muller-Hinton agar, 37° C., 20 hours
Description: as §1

Escherichia coli 3190Y = assay: as above; format: cell-based; conditions: E. coli 3190Y, Muller-Hinton agar, 37° C., 20 hours, read-out: Minimum Inhibitory Concentration
Description: as §1

[12] = system: Escherichia coli TEM9 2639E; assay: as above; format: cell-based; conditions: TEM92639E, 20 h, read-out: Minimum Inhibitory Concentration
Description: as §1

[13] = system: Klebsiella aerogenes K1 + 1082E; assay: as above; format: cell-based; conditions: 20 h, read-out: Minimum Inhibitory Concentration
Description: as §1

Escherichia coli 851E = assay: as above; format: cell-based; conditions: E. coli 851E, Muller-Hinton agar, 37° C., 20 hours
Description: as §1

[14] = system: Enterobacter cloacae IND + VE 1194E; assay: as above; format: cell-based; conditions: E. cloacae IND + VE 1194E, Muller-Hinton agar, 37° C., 20 hours, read-out: Minimum Inhibitory Concentration
Description: as §1

[15] = system: Escherichia coli TEM5 3739E; assay: as above; format: cell-based; conditions: TEM53739E, 20 h, read-out: Minimum Inhibitory Concentration
Description: as §1

Enterobacter cloacae P99 = assay: as above; format: cell-based; conditions: P99, 20 h, read-out: Minimum Inhibitory Concentration
Description: as §1

[16] = system: Pseudomonas aeruginosa 10145; assay: as above; format: cell-based; conditions: Pseudomonas aeruginosa; P. aeruginosa 10145; Muller-Hinton agar, 37° C., 20 hours; read-out: Minimum Inhibitory Concentration
Description: as §1

[17] = system: Escherichia coli TEM1 1193E; assay: as above; format: cell-based; conditions: TEM11193E, 20 h, read-out: Minimum Inhibitory Concentration
Description: as §1

[18] = system: Streptococcus faecalis 29212A; assay: as above; format: cell-based; conditions: Enterococcus faecalis; S. faecalis 29212A; Muller-Hinton agar, 37° C., 20 hours; read-out: Minimum Inhibitory Concentration
Description: as §1

[19] = system: Staphylococcus aureus 241; assay: as above; format: cell-based; conditions: Staphylococcus aureus; S. aureus 241; Muller-Hinton agar, 37° C., 20 hours; read-out: Minimum Inhibitory Concentration
Description: as §1

[20] = system: Staphylococcus aureus giorgio; assay: as above; format: cell-based; conditions: S. aureus giorgio, Muller-Hinton agar, 37° C., 20 hours, read-out: Minimum Inhibitory Concentration
Description: as §1

[21] = Pharmacokinetic properties in rats (blood concentration by agar well biological assay); set-up: species or system SD rats (male); conditions: rat, in vivo, iv, 20 mg/kg
Description: The pharmacokinetic properties of the compound of the present invention were determined using SD rats (.male.) weighing 230±10 g. Specifically,the test samples were injected into femoral vein in an amount of 20 mg/kg to 4 to 5 test animals. Blood was taken from femoral vein 1, 2.5, 5, 10, 20, 40, 60, 120 and 180 minutes after administration and then subjected to a biological assay using agar well method to measure the blood concentration.

In the case of Cc1c(N)nc[n+](C/C=C/C2=C(C(=O)[O-])N3C(=O)[C@@H](NC(=O)/C(=N\O[C@H](C(=O)O)c4ccc(O)c(O)c4)c4csc(N)n4)[C@H]3SC2)c1N [Compound I-4a, 7-[(Z)-2-(2-aminothiazol-4-yl)-2-(α-carboxy-3,4-dihydroxybenzyloxyimino)acetamido]-3-[(E)-3-(4,6-diamino-5-methylpyrimidinium-1-yl)-1-propen-1-yl]-3-cephem-4-carboxylate], the MIC (Escherichia coli 10536) is reported as 0.008 µg/mL (≈ 0.0115 µM), the MIC [1] is reported as 0.5 µg/mL (≈ 0.717 µM) and the MIC [2] is reported as 0.25 µg/mL (≈ 0.358 µM). It also gave an MIC [3] of 4 µg/mL (≈ 5.73 µM), an MIC [4] of 16 µg/mL (≈ 22.9 µM) and an MIC [5] of 1 µg/mL (≈ 1.43 µM). It also gave an MIC (Staphylococcus aureus 77) of 2 µg/mL (≈ 2.87 µM), an MIC [6] of 0.25 µg/mL (≈ 0.358 µM) and an MIC [7] of 0.016 µg/mL (≈ 0.0229 µM). The MIC [8] was 0.25 µg/mL (≈ 0.358 µM), the MIC (Proteus vulgaris 6059A) was 0.063 µg/mL (≈ 0.0903 µM) and the MIC [9] was 0.13 µg/mL (≈ 0.186 µM). The MIC [10] was 0.5 µg/mL (≈ 0.717 µM), the MIC [11] was 0.13 µg/mL (≈ 0.186 µM) and the MIC (Escherichia coli 3190Y) was 0.063 µg/mL (≈ 0.0903 µM). It also gave an MIC [12] of 2 µg/mL (≈ 2.87 µM), an MIC [13] of 0.063 µg/mL (≈ 0.0903 µM) and an MIC (Escherichia coli 851E) of 0.063 µg/mL (≈ 0.0903 µM). It also gave an MIC [14] of 2 µg/mL, an MIC [15] of 2 µg/mL (≈ 2.87 µM) and an MIC (Enterobacter cloacae P99) of 8 µg/mL (≈ 11.5 µM). For the same compound, the MIC [16] was 0.5 µg/mL (≈ 0.717 µM), the MIC [17] was 0.063 µg/mL (≈ 0.0903 µM) and the MIC [18] was 4 µg/mL (≈ 5.73 µM). It also gave an MIC [19] of 64 µg/mL (≈ 91.7 µM), an MIC [20] of 0.25 µg/mL (≈ 0.358 µM) and an AUC [21] of 53100 ng·h/mL. For the same compound, the half-life [21] was 53 min.
Work on Nc1nc(/C(=N/O[C@H](C(=O)O)c2ccc(O)c(O)c2)C(=O)N[C@@H]2C(=O)N3C(C(=O)[O-])=C(/C=C/C[n+]4cnc(N)c(N)c4N)CS[C@H]23)cs1 [Compound I-5a, 7-[(Z)-2-(2-aminothiazol-4-yl)-2-(α-carboxy-3,4-dihydroxybenzyloxyimino)acetamido]-3-[(E)-3-(4,5,6-triaminopyrimidinium-1-yl)-1-propen-1-yl]-3-cephem-4-carboxylate] yielded an MIC (Escherichia coli 10536) of 0.016 µg/mL (≈ 0.0229 µM), an MIC [1] of 0.5 µg/mL (≈ 0.716 µM) and an MIC [2] of 0.5 µg/mL (≈ 0.716 µM). It also gave an MIC [3] of 0.5 µg/mL (≈ 0.716 µM), an MIC [4] of 64 µg/mL (≈ 91.6 µM) and an MIC [5] of 4 µg/mL (≈ 5.72 µM). For the same compound, the MIC (Staphylococcus aureus 77) was 2 µg/mL (≈ 2.86 µM), the MIC [6] was 0.031 µg/mL (≈ 0.0444 µM) and the MIC [7] was 0.03 µg/mL (≈ 0.0429 µM). The MIC [8] was 0.063 µg/mL (≈ 0.0902 µM), the MIC (Proteus vulgaris 6059A) was 0.063 µg/mL (≈ 0.0902 µM) and the MIC [9] was 0.13 µg/mL (≈ 0.186 µM). It also gave an MIC [10] of 0.5 µg/mL (≈ 0.716 µM), an MIC [11] of 0.5 µg/mL (≈ 0.716 µM) and an MIC (Escherichia coli 3190Y) of 0.063 µg/mL (≈ 0.0902 µM). The MIC [12] was 1 µg/mL (≈ 1.43 µM), the MIC [13] was 0.063 µg/mL (≈ 0.0902 µM) and the MIC (Escherichia coli 851E) was 0.063 µg/mL (≈ 0.0902 µM). The MIC [14] was 1 µg/mL, the MIC [15] was 0.5 µg/mL (≈ 0.716 µM) and the MIC (Enterobacter cloacae P99) was 8 µg/mL (≈ 11.4 µM). The MIC [16] was 0.25 µg/mL (≈ 0.358 µM), the MIC [17] was 0.063 µg/mL (≈ 0.0902 µM) and the MIC [18] was 4 µg/mL (≈ 5.72 µM). For the same compound, the MIC [19] was 128 µg/mL (≈ 183 µM), the MIC [20] was 0.25 µg/mL (≈ 0.358 µM) and the AUC [21] was 49600 ng·h/mL. It also gave a half-life [21] of 41 min.
